Measured values reported in patent US20220313651A1, “INHIBITORS OF ZIKA VIRUS INFECTION” (priority 2019, published 2022).

Tests used:
[1] = target: ZIKV full-length E protein (Zika virus, UniProt Q32ZE1); test: ELISA binding to ZIKV full-length E protein
Method: (§1) Binding of compounds (NPs) to ZIKV full-length E (FIG. 3A), EDIII (FIG. 3B), and NS2B-NS3 (FIG. 3C) proteins, was detected by ELISA. The percent binding was reported in the presence or absence of serially diluted NPs using the formula (1-[E/EDIII-NP]/[E/EDIII])×100 (for E/EDIII binding) or (1-[NS2B-NS3-NP]/[NS2B-NS3])×100 (for NSEB-NS3 binding). […] The concentrations of ZIKV EDIII and mAbs were 1.5 and 0.5 μg/ml, respectively. […] The concentrations of substrate (Bz-Nle-Lys-Lys-Arg-AMC) and ZIKV NS2B-NS3 protein were 4 μM and 1 μg/ml, respectively. The percent inhibition of protease activity was calculated in the presence or absence of serially diluted compounds using the formula (1-[NS2B-NS3-substrate-NP]/[NS2B-NS3-substrate])×100. The IC50 values were calculated based on the percent inhibition. The data are expressed as mean±s.e.m. (n=4).
(§2) The data are expressed as mean±s.e.m. (n=4), and DMSO was used as negative control. Surface plasmon resonance (SPR) analysis of the binding between ST087010 and ZIKV EDIII (FIG. 6D) or NS2B-NS3 (FIG. 6E) protein was performed. Binding affinity was shown as KD (equilibrium dissociation constant).
(§3) The binding between the Z-medicament and ZIKV full-length E protein, EDIII protein (E residues 298-409 fused with a C-terminal human Fc), or NS2B-NS3 protease was carried out by ELISA. Briefly, ELISA plates were pre-coated with the proteins described above at 4° C. overnight, and blocked with 2% fat-free milk at 37° C. for 2 h. Serial dilutions of the Z-medicament or DMSO (control) were then added to the plates and incubated at 37° C. for 2 h. The plates were washed with PBS containing Tween-20 (PBST), and incubated at 37° C. for 1 h with ZIKV EDIII-specific human mAb ZKA64-LALA (0.5 μg/ml) (for binding to ZIKV full-length E and EDIII proteins), or mouse sera specific to ZIKV NS2B-NS3 (for binding to NS2B-NS3 protease). The plates were washed with PBST, and incubated with horseradish peroxidase (HRP)-conjugated anti-human IgG-Fab (1:3000) or anti-mouse IgG (1:3000) antibody at 37° C. for 1 h. The 3,3′,5,5′-tetramethylbenzidine (TMB) substrate was added to the plates, and the reaction was stopped by 1 N H2SO4. Absorbance at 450 nm (A450 value) was measured by ELISA microplate reader.
(§4) Briefly, ELISA plates were coated with each protein (1 μg/ml) at 4° C. overnight, and were then incubated with blocking buffer containing 2% fat-free milk in PBST at 37° C. for 2 h. The above compounds, or DMSO control, at serial dilutions were added to the plates, and incubated at 37° C. for 2 h. After three washes using PBST, the plates were incubated at 37° C. for 2 h with ZIKV EDIII-specific human mAb ZKA64-LALA (0.5 μg/ml) (for binding to ZIKV full-length E or EDIII protein), or ZIKV NS2B-NS3-specific mouse sera (for binding to NS2B-NS3 protein). After further washes, the plates were incubated with HRP-conjugated anti-human IgG-Fab (1:3,000) or anti-mouse IgG (1:3,000) antibody at 37° C. for 1 h. The plates were incubated with substrate TMB, and the reaction was stopped by addition of 1 N H2SO4. Absorbance at 450 nm (A450 values) was measured by an ELISA microplate reader. EC50 values were calculated.

[2] = target: T1, ZIKV EDIII protein (E residues 298-409) (Zika virus, UniProt Q32ZE1, D679E/I627V/V603I/V629A); type: binding; details: ELISA
T1 construct: human Fc (C)
Method: as §1, §2, §3
Briefly, ELISA plates were coated with each protein (1 μg/ml) at 4° C. overnight, and were then incubated with blocking buffer containing 2% fat-free milk in PBST at 37° C. for 2 h. The above compounds, or DMSO control, at serial dilutions were added to the plates, and incubated at 37° C. for 2 h. […] Absorbance at 450 nm (A450 values) was measured by an ELISA microplate reader. EC50 values were calculated.

[3] = target: T2, ZIKV NS2B-NS3 protease (Zika virus, UniProt Q32ZE1); test: ELISA binding to ZIKV NS2B-NS3 protease
T2 construct: 49-97) and NS2 protein (residues 1-185) through a covalent; made in house; host or cells: E. coli
Method: as §1, §2, §3
as §4, with “h.” for “h. The plates were incubated with substrate TMB, and the reaction was stopped by addition of 1 N H2SO4. Absorbance at 450 nm (A450 values) was measured by an ELISA microplate reader. EC50 values were calculated.”

[4] = test system: Vero E6 cells; test: in vitro; details: Vero E6 cells
Method: The cytotoxicity of the Z-medicaments in Vero E6 (ZIKV target cells) was evaluated using the Cell Counting Kit-8 (CCK8).
Briefly, compounds at 2-fold serial dilutions were added to cells (2.0×10^4/well) pre-seeded in 96-well plates. The cells were cultured at 37° C. for 3 days, and incubated with CCK8 solution, followed by measurement of absorbance at 450 nm (A450 value) using microplate reader.

[5] = test system: ZIKV human strain IbH 30656 (1968/Nigeria); test: Plaque reduction inhibition assay in Vero E6 cells, ZIKV IbH 30656; type: cell-based, Zika virus (ZIKV); details: Table 7, gossypol derivatives, read-out: ZIKV strains IC50, IbH 30656
Method: (§5) A plaque reduction inhibition assay was carried out to measure the inhibitory activity of Z-medicaments against infections of ZIKV and DENV. […] The compound-virus mixtures were then transferred to Vero E6 cells (10^5/well) and incubated at 37° C. for 1 h.

[6] = test system: ZIKV mosquito strain MEX 2-81 (2016/Mexico); test: Plaque reduction inhibition assay in Vero E6 cells, ZIKV MEX 2-81; type: cell-based, Zika virus (ZIKV); details: Vero E6 cells; Table 7, gossypol derivatives; read-out: ZIKV strains IC50, MEX 2-81
Excerpt: (§6) Vero E6 and LLC-MK2 cells were maintained in Dulbecco's Modified Eagle Medium (DMEM) supplemented with 8% fetal bovine serum (FBS) and penicillin and streptomycin (P/S). C6/36 cells were maintained in Eagle's Minimal Essential Medium (EMEM) supplemented with 5% FBS and P/S. ZIKV strains, including human strains PAN2016 (2016/Panama), R116265 (2016/Mexico), PAN2015 (2015/Panama), FLR (2015/Colombia), R103451 (2015/Honduras), PRVABC59 (2015/Puerto Rico), PLCal_ZV (2013/Thailand), and IbH 30656 (1968/Nigeria), mosquito strain MEX 2-81 (2016/Mexico), and rhesus macaque strain MR 766 (1947/Uganda), were used in the studies. These ZIKV strains were cultured in Vero E6 cells, and viral titers were detected by a standard plaque-forming assay. DENV human strains, including type 1: DENV-1-V1792 (2007/Vietnam), type 2: DENV-2-V594 (2006/Puerto Rico), type 3: DENV-3-V1043 (2006/Puerto Rico), and type 4: DENV-4-PR 06-65-740 (2006/Puerto Rico), were cultured in C6/36 cells, and the viral titers were determined by plaque-forming assay as described above.
as §5, with “h. […] The cells were washed thoroughly with PBS, and overlaid with DMEM containing 1% carboxymethyl cellulose and 2% FBS, followed by in vitro culture at 37° C. for 4-5 days and then staining with 0.5% crystal violet.” for “h.”
(§7) After removal of the unbound compounds by centrifugation after addition of 3% PEG-6000, ZIKV was incubated with Vero E6 cells at 37° C. for 1 h. The cells were then washed with PBS, overlaid with DMEM containing 1% carboxymethyl cellulose and 2% FBS, and cultured at 37° C. for 4-5 days, followed by staining with 0.5% crystal violet.

[7] = test system: ZIKV human strain R103451 (2015/Honduras); test: Plaque reduction inhibition assay in Vero E6 cells, ZIKV R103451; type: cell-based, Zika virus (ZIKV); details: Vero E6 cells; Table 7, gossypol derivatives; read-out: ZIKV strains IC50, R103451
Method: as §5

[8] = test system: ZIKV rhesus macaque strain MR 766 (1947/Uganda); test: Plaque reduction inhibition assay in Vero E6 cells, ZIKV MR 766; type: cell-based, Zika virus (ZIKV); details: Vero E6 cells; Table 7, gossypol derivatives; read-out: ZIKV strains IC50, MR766
Method: as §5

[9] = test system: ZIKV human strain PLCal_ZV (2013/Thailand); test: Plaque reduction inhibition assay in Vero E6 cells, ZIKV PLCal_ZV; type: cell-based, Zika virus (ZIKV); details: Vero E6 cells; Table 7, gossypol derivatives; read-out: ZIKV strains IC50, PLCal_ZV
Method: as §5

[10] = test system: ZIKV human strain PAN2015 (2015/Panama); test: microbe, parasite or virus in culture; type: cell-based, Zika virus (ZIKV); details: Vero E6 cells; Table 7, gossypol derivatives; read-out: ZIKV strains IC50, PAN2015
Excerpt: as §6
as §5, with “h. […] The cells were washed thoroughly with PBS, and overlaid with DMEM containing 1% carboxymethyl cellulose and 2% FBS, followed by in vitro culture at 37° C. for 4-5 days and then staining with 0.5% crystal violet.” for “h.”
as §7

[11] = test system: ZIKV human strain PAN2016 (2016/Panama); test: Plaque reduction inhibition assay in Vero E6 cells, ZIKV PAN2016; type: cell-based, Zika virus (ZIKV); details: Vero E6 cells; Table 7, gossypol derivatives; read-out: ZIKV strains IC50, PAN2016
Method: as §5

[12] = test system: ZIKV human strain FLR (2015/Colombia); test: Plaque reduction inhibition assay in Vero E6 cells, ZIKV FLR; type: cell-based, Zika virus (ZIKV); details: Vero E6 cells; Table 7, gossypol derivatives; read-out: ZIKV strains IC50, FLR
Method: as §5

[13] = test system: ZIKV human strain R116265 (2016/Mexico); test: Plaque reduction inhibition assay in Vero E6 cells, ZIKV R116265; type: cell-based, Zika virus (ZIKV); details: Table 7, gossypol derivatives, read-out: ZIKV strains IC50, R116265
Excerpt: as §6
as §5, with “h. […] The cells were washed thoroughly with PBS, and overlaid with DMEM containing 1% carboxymethyl cellulose and 2% FBS, followed by in vitro culture at 37° C. for 4-5 days and then staining with 0.5% crystal violet.” for “h.”
as §7

[14] = test system: ZIKV human strain PRVABC59 (2015/Puerto Rico); test: Plaque reduction inhibition assay in Vero E6 cells, ZIKV PRVABC59; type: cell-based, Zika virus (ZIKV); details: Vero E6 cells; Table 7, gossypol derivatives; read-out: ZIKV strains IC50, PRVABC59
Method: as §5

Row | SMILES | Binding to ZIKV full-length E protein (in words) [1] | Binding to ZIKV EDIII protein (in words) [2] | Binding to ZIKV NS2B-NS3 protein (in words) [3] | CC50 ([4]; 3 days, CCK8, Table 1) | IC50 [5] | IC50 [6] | IC50 [7] | IC50 [8] | IC50 [9] | CC50 ([4]; Table 7, gossypol derivatives) | IC50 [10] | IC50 [11] | IC50 [12] | IC50 [13] | IC50 [14]
1 | CC(C)C[C@H](NC(=O)[C@H](Cc1ccccc1)NC(=O)c1cnccn1)B(O)O [Bortezomib, bortezomib, reference compound] | bound to no ZIKV proteins tested | bound to no ZIKV proteins tested | bound to no ZIKV proteins tested | 17 ± 0.2 µM |  |  |  |  |  |  |  |  |  |  | 
2 | CCC(O)/N=C/c1c(O)c(O)c(C(C)C)c2cc(C)c(-c3c(C)cc4c(C(C)C)c(O)c(O)c(/C=N/C(O)CC)c4c3O)c(O)c12 (stereo not shown) [ST005138] |  |  |  |  | 2.4 ± 0.27 µM | 2.89 ± 0.12 µM | 3.05 ± 0.09 µM | 2.52 ± 0.04 µM | 3.87 ± 0.54 µM | 22.82 ± 0.02 µM | 2.18 ± 1.19 µM | 2.29 ± 0.01 µM | 3.44 ± 0.18 µM | 3.13 ± 0.29 µM | 3.89 ± 0.32 µM
3 | Cc1cc2c(C(C)C)c(O)c(O)c3c2c(c1-c1c(C)cc2c(C(C)C)c(O)c(O)c4c2c1OC4N)OC3N (stereo not shown) [ST069299] |  |  |  |  | 2.54 ± 0.44 µM | 3.89 ± 0.24 µM | 3.85 ± 0.11 µM | 4.88 ± 0.05 µM | 3.98 ± 0.54 µM | 25.9 ± 2.7 µM | 2.33 ± 0.1 µM | 2.34 ± 0.06 µM | 3.27 ± 0.25 µM | 2.57 ± 0.2 µM | 3.33 ± 0.3 µM
4 | Cc1cc2nc[nH]c2c(N=Cc2c(O)c(O)c(C(C)C)c3cc(C)c(-c4c(C)cc5c(C(C)C)c(O)c(O)c(C=Nc6c(C)c(C)cc7nc[nH]c67)c5c4O)c(O)c23)c1C [ST092971] |  |  |  |  | 5.16 ± 0.21 µM | 13.5 ± 0.58 µM | 6.64 ± 0.27 µM | 5.2 ± 0.37 µM | 6.72 ± 0.2 µM | 72.1 ± 1.91 µM | 5.01 ± 0.36 µM | 4.98 ± 0.01 µM | 6.89 ± 0.05 µM | 7.97 ± 0.17 µM | 9.1 ± 0.11 µM
